Where “and” joins values, the source holds several entries; their conditions need not be identical. Equal values may be shown once. Toxic doses and inconclusive results are not listed. Rule as the data show it: active = T/C of 150% or more; inactive = T/C below 125%.
System: L1210 leukemia ip in BDF1 mice, survival T/C
Assay: NCI In Vivo Anticancer Drug Screen. Data for tumor model L1210 Leukemia (intraperitoneal) in B6D2F1 (BDF1) mice
Settings: endpoint: mean survival time, higher = longer survival
Method in brief: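 Read-out is survival time, reported as the treated-group measurement over the vehicle-control measurement.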

[1] = dose: 100.0 mg/kg/injection, schedule: Q04DX003 (ip), vehicle: saline
[2] = dose: 200.0 mg/kg/injection, schedule: Q04DX003 (ip), vehicle: saline
[3] = dose: 100.0 mg/kg/injection, schedule: Q01DX009 (ip), vehicle: Klucel (hydroxypropylcellulose) (HPC)
[4] = dose: 200.0 mg/kg/injection, schedule: Q01DX009 (ip), vehicle: Klucel (hydroxypropylcellulose) (HPC)
[5] = dose: 400.0 mg/kg/injection, schedule: Q01DX009 (ip), vehicle: Klucel (hydroxypropylcellulose) (HPC)
[6] = dose: 100.0 mg/kg/injection, schedule: Q04DX003 (ip), vehicle: Klucel (hydroxypropylcellulose) (HPC)
[7] = dose: 200.0 mg/kg/injection, schedule: Q04DX003 (ip), vehicle: Klucel (hydroxypropylcellulose) (HPC)
[8] = dose: 400.0 mg/kg/injection, schedule: Q04DX003 (ip), vehicle: Klucel (hydroxypropylcellulose) (HPC)
[9] = dose: 100.0 mg/kg/injection, schedule: Q04DX003 (ip), vehicle: saline with Tween-80
[10] = dose: 200.0 mg/kg/injection, schedule: Q04DX003 (ip), vehicle: saline with Tween-80
[11] = dose: 400.0 mg/kg/injection, schedule: Q04DX003 (ip), vehicle: saline with Tween-80
[12] = dose: 25.0 mg/kg/injection, schedule: Q04DX003 (ip), vehicle: saline
[13] = dose: 50.0 mg/kg/injection, schedule: Q04DX003 (ip), vehicle: saline
[14] = dose: 100.0 mg/kg/injection, schedule: Q01DX001 (ip), vehicle: saline
[15] = dose: 50.0 mg/kg/injection, schedule: Q01DX001 (ip), vehicle: saline
[16] = dose: 200.0 mg/kg/injection, schedule: Q01DX001 (ip), vehicle: saline
[17] = dose: 400.0 mg/kg/injection, schedule: Q01DX001 (ip), vehicle: saline

Measured: T/C

Cc1c(O)c2ccc3ccccc3c2oc1=O
inactive: [1] 97 % of control | [2] 91 % of control

O=C(Nc1ccccc1F)Oc1ccc(OCc2ccccc2)cc1
inactive: [3] 101 % of control | [4] 101 % of control | [5] 101 % of control

CC1(C)CC(=O)CC(C)(CN)C1 (configuration not stated)
inactive: [6] 100 % of control | [7] 104 % of control | [8] 100 % of control

CCOC(=O)c1ccc2c(c1)nc1c3cccc4cccc(c(=O)n21)c43
inactive: [9] 86 % of control | [10] 92 % of control | [11] 98 % of control

O=C(Nc1ccc(C2=NCCN2)c(Cl)c1)c1ccc(C(=O)Nc2ccc(C3=NCCN3)c(Cl)c2)cc1
inactive: dose: 1.87 mg/kg/injection, schedule: Q01DX Z (ip), vehicle: carboxymethylcellulose (CMC) 124 % of control | dose: 3.75 mg/kg/injection, schedule: Q01DX Z (ip), vehicle: carboxymethylcellulose (CMC) 124 % of control | dose: 7.5 mg/kg/injection, schedule: Q01DX Z (ip), vehicle: carboxymethylcellulose (CMC) 117 % of control | dose: 30.0 mg/kg/injection, schedule: Q01DX Z (ip), vehicle: carboxymethylcellulose (CMC) 120 % of control | dose: 120.0 mg/kg/injection, schedule: Q01DX Z (ip), vehicle: carboxymethylcellulose (CMC) 86 % of control

COc1cc(N(CCCl)CCCl)c(OC)cc1C=Nc1ccccc1C(=O)O
inactive: dose: 2.6 mg/kg/injection, schedule: Q01DX009 (ip), vehicle: carboxymethylcellulose (CMC) 108 % of control | dose: 4.4 mg/kg/injection, schedule: Q01DX009 (ip), vehicle: carboxymethylcellulose (CMC) 116 % of control | dose: 5.5 mg/kg/injection, schedule: Q01DX001 (ip), vehicle: Klucel (hydroxypropylcellulose) (HPC) 109 % of control | dose: 6.6 mg/kg/injection, schedule: Q01DX009 (ip), vehicle: carboxymethylcellulose (CMC) 123 % of control | dose: 10.0 mg/kg/injection, schedule: Q01DX009 (ip), vehicle: carboxymethylcellulose (CMC) 123 % of control | dose: 11.0 mg/kg/injection, schedule: Q01DX001 (ip), vehicle: Klucel (hydroxypropylcellulose) (HPC) 111 % of control | dose: 19.0 mg/kg/injection, schedule: Q01DX001 (ip), vehicle: carboxymethylcellulose (CMC) 117 % of control | dose: 22.0 mg/kg/injection, schedule: Q01DX001 (ip), vehicle: Klucel (hydroxypropylcellulose) (HPC) 117 % of control | dose: 29.0 mg/kg/injection, schedule: Q01DX001 (ip), vehicle: carboxymethylcellulose (CMC) 118 % of control

FC(F)(F)C(Cl)Br (configuration not stated)
inactive: [12] 106 % of control | [13] 104 % of control | [14] 101 % of control | [9] 98 % of control | [1] 97 % of control | dose: 150.0 mg/kg/injection, schedule: Q04DX003 (ip), vehicle: saline 98 % of control | [10] 97 % of control | dose: 225.0 mg/kg/injection, schedule: Q04DX003 (ip), vehicle: saline 101 % of control | dose: 335.0 mg/kg/injection, schedule: Q04DX003 (ip), vehicle: saline 96 % of control | [11] 106 % of control | dose: 1000.0 mg/kg/injection, schedule: Q05DX002 (ip), vehicle: water 97 % of control | dose: 2000.0 mg/kg/injection, schedule: Q05DX002 (ip), vehicle: water 108 % of control

[N-]=[N+]=NCc1cnccn1
inactive: dose: 12.5 mg/kg/injection, schedule: Q01DX009 (ip), vehicle: saline 103 % of control | dose: 12.5 mg/kg/injection, schedule: Q04DX003 (ip), vehicle: saline 98 % of control | dose: 25.0 mg/kg/injection, schedule: Q01DX009 (ip), vehicle: saline 101 % of control | [12] 98 % of control | [13] 98 % of control

CC(=O)CC(=O)N(C(=O)CC(C)=O)c1ccccc1C
inactive: dose: 50.0 mg/kg/injection, schedule: Q01DX009 (ip), vehicle: saline with Tween-80 105 % of control | dose: 100.0 mg/kg/injection, schedule: Q01DX009 (ip), vehicle: saline with Tween-80 105 % of control | dose: 200.0 mg/kg/injection, schedule: Q01DX009 (ip), vehicle: saline with Tween-80 94 % of control

CN(N)/C(N)=N/N
inactive: [1] 97 % of control | [2] 102 % of control | dose: 400.0 mg/kg/injection, schedule: Q04DX003 (ip), vehicle: saline 97 % of control

c1ccc2c(c1)CCN(CCCCN1CCc3ccccc3C1)C2
inactive: [12] 100 % of control | [13] 102 % of control | [1] 96 % of control and 97 % of control

O=CNc1ccc2c(c1)Cc1cc(Cl)ccc1-2
inactive: dose: 30.0 mg/kg/injection, schedule: Q01DX015 (ip), vehicle: carboxymethylcellulose (CMC) 97 % of control | dose: 60.0 mg/kg/injection, schedule: Q01DX015 (ip), vehicle: carboxymethylcellulose (CMC) 106 % of control | dose: 120.0 mg/kg/injection, schedule: Q01DX015 (ip), vehicle: carboxymethylcellulose (CMC) 97 % of control

CCCCCCc1cc2c(cc1CCCC)CCC2
inactive: [15] 95 % of control | [14] 101 % of control | [16] 98 % of control | [17] 116 % of control

CC1(C)CC(=O)C(c2ccccc2[N+](=O)[O-])=C(O)C1
inactive: [15] 102 % of control | [14] 105 % of control | [16] 90 % of control | [17] 94 % of control

CC[PH+]1c2ccccc2Oc2ccccc21.CC[PH+]1c2ccccc2Oc2ccccc21.[Br][Pd][Br]
inactive: dose: 12.5 mg/kg/injection, schedule: Q04DX003 (ip), vehicle: saline with Tween-80 98 % of control | dose: 25.0 mg/kg/injection, schedule: Q04DX003 (ip), vehicle: saline with Tween-80 98 % of control | dose: 50.0 mg/kg/injection, schedule: Q04DX003 (ip), vehicle: saline with Tween-80 98 % of control

O=[N+]([O-])c1ccc(OCCBr)c(Cl)c1
inactive: [6] 92 % of control | [7] 97 % of control | [8] 96 % of control

O=C(Nc1cccc(Cl)c1Cl)N(CCO)C1CCCCC1
inactive: [3] 107 % of control | [4] 96 % of control | [5] 94 % of control

CCN(CC)CC(=O)N1Cc2ccccc2CCc2ccccc2C1
inactive: [1] 92 % of control

CCC1CN1P(=O)(N(CC)CC)N1CC1CC (configuration not stated)
inactive: dose: 29.0 mg/kg/injection, schedule: Q01DX015 (ip), vehicle: saline 100 % of control | dose: 44.0 mg/kg/injection, schedule: Q01DX015 (ip), vehicle: saline 105 % of control | dose: 66.0 mg/kg/injection, schedule: Q01DX015 (ip), vehicle: saline 109 % of control | dose: 89.0 mg/kg/injection, schedule: Q01DX001 (ip), vehicle: saline 111 % of control | [14] 103 % of control | dose: 100.0 mg/kg/injection, schedule: Q01DX009 (ip), vehicle: saline 107 % of control | dose: 100.0 mg/kg/injection, schedule: Q01DX015 (ip), vehicle: saline 110 % of control | dose: 133.0 mg/kg/injection, schedule: Q01DX001 (ip), vehicle: saline 119 % of control | dose: 150.0 mg/kg/injection, schedule: Q01DX009 (ip), vehicle: saline 107 % of control | [16] 121 % of control

[O-]/[N+](=C\c1cccc(Cl)c1)c1ccccc1
inactive: [15] 102 % of control | [14] 100 % of control | [6] 107 % of control | [16] 100 % of control | [7] 100 % of control | [17] 112 % of control

O=C(Nc1ccccc1Cl)Oc1ccccc1-c1ccccc1
inactive: dose: 100.0 mg/kg/injection, schedule: Q04DX002 (ip), vehicle: Klucel (hydroxypropylcellulose) (HPC) 106 % of control | dose: 200.0 mg/kg/injection, schedule: Q04DX002 (ip), vehicle: Klucel (hydroxypropylcellulose) (HPC) 113 % of control | dose: 400.0 mg/kg/injection, schedule: Q04DX002 (ip), vehicle: Klucel (hydroxypropylcellulose) (HPC) 120 % of control

NC(=S)N/N=C/c1cc2c3c(c1)CCCN3CCC2
inactive: [9] 109 % of control | [10] 103 % of control | [11] 103 % of control

CC(=N\NS(=O)(=O)c1ccc(C)cc1)/C(C)=N/NS(=O)(=O)c1ccc(C)cc1
inactive: dose: 75.0 mg/kg/injection, schedule: Q01DX001 (ip), vehicle: saline 87 % of control | dose: 150.0 mg/kg/injection, schedule: Q01DX001 (ip), vehicle: saline 89 % of control | dose: 300.0 mg/kg/injection, schedule: Q01DX001 (ip), vehicle: saline 90 % of control
